Laboratory results: US11065277B2, “Method of ameliorating side effects of sickle cell disease treatments” (ALBERT EINSTEIN COLLEGE OF MEDICINE, priority 2015, dated 2021)
Entries after “also recorded” stand apart in the source; their conditions may differ.

Legend:
[1] = test system: BERK low gamma; assay: Systemic vaso-occlusion and systemic flow in low gamma BERK; assay type: in vivo, mouse
Description: (§1) Just as with supra-perfusion therapy, a sickle therapy induced toxicity is apparent in the quercetin-based antioxidant therapy of sickle cell disease. […] However, this nearly complete clearance of the vaso-occlusion appears to induces a toxicity to such treated low gamma BERK, as the animal die after six to eight hrs. after infusing quercetin. Accordingly, it was concluded that antisickling, or antioxidant or antiadhesive therapies, need to be combined with anti-anemia therapy to protect the brain tissues from hypoxic effects as the systemic perfusion is improved as vasoconstrictive effects are reduced.
(§2) A lower dosage of the therapeutic that only marginally reduces the severity of the disease as reflected by systemic vaso-occlusion can still moderate the severity of the disease to some degree without creating an oxygen debt in the brain (i.e. the pathology of the disease as reflected by CBF and BOLD, in an organ specific manner).

[2] = test system: BERK mice; assay: Intravital microscopy of the systemic circulation (shear rate, volumetric flow rate, leukocyte adhesion, sickling); assay type: in vivo, mouse
[3] = Plasma level after 10% top load infusion; assay type: in vivo, mouse; conditions: low gamma BERK mice, infusion of 6 gm % solution at 10% top load
Description: Infusion of a 6 gm % solution EAF P3K6 Hb to a low gamma BERK mice at 10% top load results in a presence of 0.3 gm/dl EAF P3K6 Hb in the plasma, the HbS in the RBC being 8 gm/dl.

[4] = test system: BERK mice; assay: BOLD-RHO (BOLD MRI response to hyperoxia, gray matter); assay type: in vivo, mouse
Description: BL=baseline, PI=post injection. […] Using BOLD MRI imaging (which is sensitive to the tissue concentration of deoxy-Hb) the sufficiency of oxygenation of cerebral tissues was measured by assessing the change in deoxy-Hb which occurs with administration of a short inhalation bolus of 100% O2.

[5] = test system: BERK mice; assay: Cerebral blood flow (CBF) after treatment; assay type: in vivo, mouse
[6] = test system: BERK low gamma; conditions: mouse, in vivo, ip
Description: as §1, §2

[7] = BERK mice, post injection vs baseline, 10% top-load
[8] = low gamma BERK, single dose 20 mg/kg intraperitoneally, three hrs. after infusion
[9] = BERK low gamma, 50 mg/kg intraperitoneal three times a week
[10] = low gamma BERK, daily oral dosing 100/mg per/kg for 10 days

O=c1c2cc(O)c(O)cc2oc2cc(O)c([C@@H]3O[C@H](CO)[C@@H](O)[C@H](O)[C@H]3O)c(O)c12 [mangiferine, reference compound]
therapeutic efficacy for SCD (vaso-occlusion) ([1]; BERK low gamma): not seen

EAF-PEG-Hb: extension arm facilitated hemoglobin molecule having 6 molecules of 3,000 mw polyethylene glycol (PEG) attached thereto
Volumetric flow rate / systemic (peripheral) tissue blood flow ([2]; BERK / sickle transgenic mice, after 10% topload): still increased | Leukocyte adhesion in systemic post capillary venules ([2]; sickle transgenic animals, systemic circulation): still reduced | presence in the plasma [3]: 0.3 gm/dl | BOLD-RHO (hypoxic stress, brain deoxy-Hb response to hyperoxia) [4, 7]: No drop in brain deoxy-Hb was detected; also recorded: protected against the decrease in CBF | CBF [5, 7]: drop in CBF; also recorded: decreased | CBF ([5]; low gamma BERK mice, 6 gm % solution at 10% top load): normalize the CBF

NC(=O)NO [hydroxy urea, reference compound]
expression of fetal Hb [1, 8]: without any expression | systemic flow [1, 8]: significant improvement | vaso-occlusion [1, 8]: level close to that of medium gamma BERK

O=c1c(O)c(-c2ccc(O)c(O)c2)oc2cc(O)cc(O)c12 [quercetin, 2-(3,4-dihydroxyphenyl)-3,5,7-trihydroxy-4H-chromen-4-one]
toxicity to animals ([6]; 50 mg/kg): not toxic | time of death after infusing ([6]; 200 mg/kg): six to eight | therapeutic efficacy for SCD (vaso-occlusion) ([1]; BERK low gamma): dose dependent | vaso-occlusion [1, 9]: small attenuation | vaso-occlusion ([1]; BERK low gamma, 200 mg/kg intraperitoneal, measured 3 hrs after infusion): nearly completely attenuated | improvement of systemic circulation [1, 10]: 60 to 70% | influence on BOLD [4, 10]: without any significant influence | influence on CBF [5, 9]: very little influence | influence on CBF [5, 10]: without any significant influence
